Patent US11066372B2, “Deuterated benzimidazole compound and medical use thereof” (Sumitomo Dainippon Pharma Co., Ltd., priority 2017, dated 2021)

Columns and labels:
[1] = target: human SCN9A (Nav 1.7) (Homo sapiens, UniProt Q15858); test: Measurement of Na ion current (Nav 1.7) by automated patch clamp assay in cells stably-expressing human SCN9A; type: cell-based; conditions: compound concentration 10 μmol/L, holding potential inactivating 50% Nav 1.7 channel (around −60 mV); for inhibition at 10 µM: read-out: Inhibitory rate (%) of Na ion current
Sequence of human SCN9A (Nav 1.7) (Q15858 whole entry): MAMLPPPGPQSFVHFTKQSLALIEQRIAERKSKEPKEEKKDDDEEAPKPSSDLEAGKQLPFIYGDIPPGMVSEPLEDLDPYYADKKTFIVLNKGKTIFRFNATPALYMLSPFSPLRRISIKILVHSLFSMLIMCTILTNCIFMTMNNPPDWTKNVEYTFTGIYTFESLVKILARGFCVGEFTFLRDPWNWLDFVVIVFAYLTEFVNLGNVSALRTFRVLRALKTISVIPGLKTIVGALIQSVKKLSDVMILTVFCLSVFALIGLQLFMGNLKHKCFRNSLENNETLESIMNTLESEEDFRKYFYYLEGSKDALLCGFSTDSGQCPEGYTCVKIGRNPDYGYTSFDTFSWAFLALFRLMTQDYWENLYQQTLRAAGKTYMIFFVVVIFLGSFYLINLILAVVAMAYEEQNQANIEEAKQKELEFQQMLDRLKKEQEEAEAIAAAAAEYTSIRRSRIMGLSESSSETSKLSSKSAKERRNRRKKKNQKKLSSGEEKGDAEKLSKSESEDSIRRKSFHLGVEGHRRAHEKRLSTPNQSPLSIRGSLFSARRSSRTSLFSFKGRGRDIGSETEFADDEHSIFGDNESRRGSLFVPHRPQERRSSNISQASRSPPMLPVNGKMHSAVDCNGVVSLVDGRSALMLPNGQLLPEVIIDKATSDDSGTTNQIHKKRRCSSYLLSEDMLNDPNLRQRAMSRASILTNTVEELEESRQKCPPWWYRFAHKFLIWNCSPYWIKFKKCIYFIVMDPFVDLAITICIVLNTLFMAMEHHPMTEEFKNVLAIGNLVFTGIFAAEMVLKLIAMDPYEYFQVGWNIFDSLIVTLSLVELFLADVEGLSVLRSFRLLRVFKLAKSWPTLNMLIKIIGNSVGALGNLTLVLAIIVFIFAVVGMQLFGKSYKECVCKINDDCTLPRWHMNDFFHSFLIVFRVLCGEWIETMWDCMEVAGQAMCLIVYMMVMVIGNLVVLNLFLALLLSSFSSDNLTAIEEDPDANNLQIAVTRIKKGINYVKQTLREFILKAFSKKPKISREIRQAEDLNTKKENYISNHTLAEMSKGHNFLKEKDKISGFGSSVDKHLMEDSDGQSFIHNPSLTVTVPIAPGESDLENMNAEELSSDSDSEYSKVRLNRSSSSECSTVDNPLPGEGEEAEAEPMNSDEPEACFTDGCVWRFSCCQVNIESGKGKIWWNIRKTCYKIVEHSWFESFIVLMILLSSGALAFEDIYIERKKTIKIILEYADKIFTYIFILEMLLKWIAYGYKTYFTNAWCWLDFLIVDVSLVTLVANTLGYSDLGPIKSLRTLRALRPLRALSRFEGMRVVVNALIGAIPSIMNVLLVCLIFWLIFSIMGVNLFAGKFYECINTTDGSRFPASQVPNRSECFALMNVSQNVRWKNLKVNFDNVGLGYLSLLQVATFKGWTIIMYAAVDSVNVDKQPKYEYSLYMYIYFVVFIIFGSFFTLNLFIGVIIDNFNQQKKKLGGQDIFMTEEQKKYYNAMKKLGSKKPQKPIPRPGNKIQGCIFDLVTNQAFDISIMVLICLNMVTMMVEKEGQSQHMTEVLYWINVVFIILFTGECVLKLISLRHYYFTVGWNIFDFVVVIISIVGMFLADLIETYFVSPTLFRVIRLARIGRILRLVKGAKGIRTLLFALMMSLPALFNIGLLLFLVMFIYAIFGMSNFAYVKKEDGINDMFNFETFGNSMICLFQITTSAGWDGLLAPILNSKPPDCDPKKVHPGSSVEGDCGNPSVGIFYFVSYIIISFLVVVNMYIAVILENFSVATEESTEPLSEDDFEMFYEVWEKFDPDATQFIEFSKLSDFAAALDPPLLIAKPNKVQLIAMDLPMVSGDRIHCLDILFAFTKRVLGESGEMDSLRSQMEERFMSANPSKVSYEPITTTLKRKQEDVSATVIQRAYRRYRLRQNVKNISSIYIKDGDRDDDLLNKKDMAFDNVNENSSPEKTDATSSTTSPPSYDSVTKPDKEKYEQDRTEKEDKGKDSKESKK
Protocol: Test 1: Measurement of Na Ion Current in Voltage-Dependent Na Channel Gene Expressed Cell
Nav 1.7 current was measured by automated patch clamp assay using cells stably-expressing human SCN9A.
Cells Stably-Expressing Human SCN9A
Tetracycline-induced cells stably-expressing SCN9A were obtained from ChanTest Corporation. The cells were passaged in Ham's F-12 medium containing 10% fetal bovine serum, 100 units/mL Penicillin-Streptomycin, 0.01 mg/mL Blasticidin, and 0.4 mg/mL Zeocin. The day before the measurement, the medium was replaced with Ham's F-12 medium containing 1 μg/mL tetracycline, 100 μmol/L sodium butyrate, 10% fetal bovine serum, and 100 units/mL Penicillin-Streptomycin. Next day, the Na ion current was measured by automated patch clamp assay.
Electrophysiologic Measurement of Na Ion Current
The Na ion current was measured by automated patch clamp assay using the following extracellular solution and intracellular solution.
Extracellular solution (mmol/L): NaCl 130, MgCl2 2, CaCl2 2, CdCl2 0.1, NiCl2 0.1, Tetraethylammonium-Cl 18, 4-aminopyridine 1, HEPES 10, (adjusting pH 7.4 with NaOH)
Intracellular solution (mmol/L): CsF 120, EGTA 10, NaCl 15, HEPES 10, (adjusting pH 7.2 with CsOH)
The control of the stimulating pulse and the data acquisition were carried out using EPC10 amplifier and Patch Master Software (HEKA). Data were sampled at 10 kHz, and low-pass filtered at 3 kHz. All the measurements were carried out at room temperature. The holding potential was set at a potential inactivating 50% Nav 1.7 channel (around −60 mV), and depolarizing pulse of 20 milliseconds (+10 mV) was given once. […] The inhibitory rate of the Na ion current by the test compounds was calculated according to the following calculating formula with the peak current value generated by the depolarizing pulse. Inhibitory rate of Na ion current (%)=100×[(Peak current value in the absence of Test Compound)−(Peak current value in the presence of Test Compound)]/(Peak current value in the absence of Test Compound) Result: […]

[2] = tested on: rats streptozotocin (STZ)-induced diabetic peripheral neuropathy model; test: Analgesic effect (von Frey test) in streptozotocin-induced diabetic peripheral neuropathic pain model; type: in vivo, rat; conditions: orally administered 3 mg/kg, one hour before measuring, male Wistar rats
Protocol: Test 2: Evaluation of Analgesic Effect in Streptozotocin-Induced Diabetic Peripheral Neuropathic Pain Models
Using some typical compounds among the compounds of the present invention, the inhibitory effect for neuropathic pain was determined through the evaluation of analgesic effect in rats streptozotocin (STZ)-induced diabetic peripheral neuropathy model.
The disease animal model was prepared by means of a partially-modified method of Fox et al. (Pain 81, 307-316, 1999). STZ was intraperitoneally administered to 9-week old male Wistar rats in 45 mg/kg of body weight to prepare animal model suffering from diabetic peripheral neuropathy.
The analgesic effect was evaluated by von Frey test. Specifically, mechanical sensitivity was measured by applying hairs (von Frey hair) to the plantar surface of the animal's hind paw, and then the reaction thresholds (50% paw withdrawal thresholds) for the mechanical stimulation was determined by using a formula based on Chaplan et al. (Journal of Neuroscience Methods 53, 55-63, 1994).
One and two days before evaluating the test compounds, the reaction thresholds were measured to obtain an average thereof, and the average value was used as a reference value obtained before the test compounds would be administered. […]
In the evaluation test of the test compounds, the reaction thresholds were measured after administering each test compound. […]

[3] = Metabolic stability test in liver microsome (human); type: in vitro ADME; conditions: NADPH, 37° C., 30 minutes, dealkyl metabolite product (Reference example 5-7) assayed
Protocol: (§1) Test 3: Metabolic Stability Test in Liver Microsome
(§2) To a solution obtained by mixing 4 μL of human or rat liver microsome (produced by Xenotech, 20 mg/mL), 100 μL of 100 mM phosphate buffer solution (pH 7.4), and 74 μL of ultrapure water were added 2 μL of 1 μM DMSO solution of the test compound and further 40 μL of 10 mM aqueous NADPH (produced by Oriental Yeast Co., ltd.), and then the mixture was incubated at 37° C. for 30 minutes. After the incubation, 50 μL of the reaction solution was added to methanol to cease the metabolic reaction. The quenched solution was centrifuged at 4° C. at 4500 rpm for 5 minutes, and the supernatant was filtrated. 100 μL of the supernatant was mixed with 100 μL of 10 mM aqueous ammonium acetate, and the mixture was analyzed with LC (Shimadzu, NexeraX2)-MS (AB Sciex, TripleTOF5600) to determine the amount of the corresponding metabolite product in the mixture.

[4] = Metabolic stability test in liver microsome (rat); type: in vitro ADME; conditions: NADPH, 37° C., 30 minutes, dealkyl metabolite product (Reference example 5-7) assayed
Protocol: as §1, §2

Compound | Inhibitory rate (%) of Na ion current [1] [%] | extension width of reaction thresholds (50% paw withdrawal threshold, after minus before administration) [2] [g] | Rate of generating the metabolite product, human [3] [pmol/min/mg protein] | Rate of generating the metabolite product, rat [4] [pmol/min/mg protein] | inhibition at 10 µM [1] [%]
1-[6-(4-fluorophenoxy)-1H-benzimidazol-1-yl]-2-methyl (1,1-^2H2) propan-2-ol [Example 1] | 36 | – | – | – | –
2-methyl-1-(6-{[5-(trifluoromethyl)pyridin-2-yl]oxy}-1H-benzimidazol-1-yl) (1,1-^2H2)propan-2-ol [Example 2] | 36 | 5.0 | 0.026 | 0.260 | –
4-[6-(4-chlorophenoxy)-1H-benzimidazol-1-yl]-2-methyl(4,4-^2H2)butan-2-ol [Example 3] | 40 | – | 0.069 | 0.40 | –
[2H]C([2H])(n1cnc2ccc(Oc3ccc(OC(F)(F)F)cc3)cc21)C1(O)COC1 [Example 4, 3-[{6-[4-(trifluoromethoxy)phenoxy]-1H-benzimidazol-1-yl}(^2H2)methyl]oxetan-3-ol] | – | – | – | – | 68
[2H]C([2H])(n1cnc2ccc(-c3ccc(C(F)(F)F)cc3OC)cc21)C1(O)COC1 [Example 5, 3-[{6-[2-methoxy-4-(trifluoromethyl)phenyl]-1H-benzimidazol-1-yl}(^2H2)methyl]oxetan-3-ol] | – | – | – | – | 55
